The values that follow come from publication PMC6776155 (Breeding Science, 2019).

The test system of this assay is TrGDH (His6-TF-TrGDH). Nature of the assay: NADPH oxidation at […] nm, Lineweaver-Burk. The settings on record: amination; 2-OG 1-10 mM, 100 μM NADPH, NH4Cl co-substrate, Tris pH 8.0, 25 °C. The class given is biochemical, Trichurus sp.

Turning to `O=C(O)CCC(=O)C(=O)O` [2-oxoglutarate], the Km (commonly the concentration of substrate that gives half-maximal velocity) was determined as 1570 ± 190 µM.
